Experimental data from the supplement of paper PMC13380429.

Assays:
[1] = system: A549-ACE2 infected with SARS-CoV-2; test: cell count relative to DMSO; higher = less toxic; settings: 24 h
Caco-2 [2] = test: cell viability relative to DMSO; higher = less toxic; settings: 72 h
Calu-3 [3] = test: as above; settings: 72 h
HepG2 [4] = test: as above; settings: 72 h
U2OS [5] = test: as above; settings: 72 h
Vero E6 [6] = test: as above; settings: 72 h
[7] = system: A549-ACE2 infected with SARS-CoV-2; test: SARS-CoV-2 infection rate relative to DMSO; higher = more infection; settings: 24 h
A549-ACE2 [8] = test: phospholipidosis EC50; higher = less potent phospholipidosis inducer
A549-ACE2 [9] = test: drug-induced phospholipidosis relative to tamoxifen; higher = more phospholipidosis
[10] = system: A549-ACE2 infected with SARS-CoV-2; test: morphology score (similarity to uninfected cells); higher = more like uninfected cells; settings: 24 h
Caco-2 [11] = test: relative viability EC50 (midpoint between 100% and the lowest measured viability); higher = less toxic; settings: 72 h
Calu-3 [12] = test: as above; settings: 72 h
HepG2 [13] = test: as above; settings: 72 h
U2OS [14] = test: as above; settings: 72 h
Vero E6 [15] = test: as above; settings: 72 h
Caco-2 [16] = test: drug sensitivity score (DSS) for viability; higher = more toxic; extreme values may be limits of the assay; settings: 72 h
Calu-3 [17] = test: as above; settings: 72 h
HepG2 [18] = test: as above; settings: 72 h
U2OS [19] = test: as above; settings: 72 h
Vero E6 [20] = test: as above; settings: 72 h

COc1cccc(CCc2ccccc2OCC[C@@H]2C[C@@H](O)CN2C)c1
Settings	SARS-CoV-2 infection rate [%]	cell count [%]	cell viability [%]	morphology score	phospholipidosis EC50 [µM]
A549-ACE2 [8], 24 h	–	–	–	–	4.19
A549-ACE2 [8], 48 h	–	–	–	–	6.86
A549-ACE2 [8], 72 h	–	–	–	–	13.6
Caco-2 [2], 1 nM	–	–	96.1	–	–
Caco-2 [2], 10 nM	–	–	97.4	–	–
Caco-2 [2], 100 nM	–	–	104	–	–
Caco-2 [2], 1000 nM	–	–	85.9	–	–
Caco-2 [2], 10000 nM	–	–	90	–	–
Calu-3 [3], 1 nM	–	–	101	–	–
Calu-3 [3], 10 nM	–	–	92.9	–	–
Calu-3 [3], 100 nM	–	–	97.2	–	–
Calu-3 [3], 1000 nM	–	–	91.6	–	–
Calu-3 [3], 10000 nM	–	–	80.2	–	–
HepG2 [4], 1 nM	–	–	86.5	–	–
HepG2 [4], 10 nM	–	–	91.3	–	–
HepG2 [4], 100 nM	–	–	85.7	–	–
HepG2 [4], 1000 nM	–	–	96.8	–	–
HepG2 [4], 10000 nM	–	–	74.2	–	–
U2OS [5], 1 nM	–	–	101	–	–
U2OS [5], 10 nM	–	–	98.4	–	–
U2OS [5], 100 nM	–	–	100	–	–
U2OS [5], 1000 nM	–	–	98.3	–	–
U2OS [5], 10000 nM	–	–	92.9	–	–
Vero E6 [6], 1 nM	–	–	105	–	–
Vero E6 [6], 10 nM	–	–	102	–	–
Vero E6 [6], 100 nM	–	–	97.5	–	–
Vero E6 [6], 1000 nM	–	–	98.8	–	–
Vero E6 [6], 10000 nM	–	–	84.9	–	–
[1], 0.3 µM	–	97	–	–	–
[1], 3 µM	–	111	–	–	–
[1], 10 µM	–	119	–	–	–
[1], 30 µM	–	99	–	–	–
[7], 0.3 µM	105	–	–	–	–
[7], 3 µM	62	–	–	–	–
[7], 10 µM	22	–	–	–	–
[7], 30 µM	20	–	–	–	–
[10], 0.3 µM	–	–	–	-0.09	–
[10], 3 µM	–	–	–	0.68	–
[10], 10 µM	–	–	–	0.87	–
[10], 30 µM	–	–	–	0.46	–

drug-induced phospholipidosis [%], A549-ACE2 [9]
Settings	0.3 µM	0.833333 µM	3.33333 µM	6.66667 µM	10 µM	30 µM
24 h	0.95	6.59	62.7	89.3	95.1	128
48 h	5.49	6.45	45.9	81.8	98.6	139
72 h	4.74	4.21	42.1	79.5	98.4	166

Settings	drug sensitivity score	relative viability EC50 [µM]
Caco-2 [11]	–	> 10
Caco-2 [16]	1	–
Calu-3 [12]	–	> 10
Calu-3 [17]	0.9	–
HepG2 [13]	–	> 10
HepG2 [18]	0	–
U2OS [14]	–	> 10
U2OS [19]	0	–
Vero E6 [15]	–	> 10
Vero E6 [20]	0.3	–
